One data set relates to Hep G2 cells. Description: Cell viability, MTT colorimetric assay. It counts as cell-based. The following applies: Hep G2, 48 h. For orientation: Formazan colour is commonly taken as a measure of viable cells.
For another data set, the system named is caspase-3. Kind of data set: Caspase-3 activity, colorimetric substrate Ac-DEVD-pNA. The data set is classed as cell-based, human. The following applies: Hep G2, 48 h, control 0.38. How it is done:
(§1) The cell line was grown in RPMI-1640 medium supplemented with L-glutamine 2 mM, HEPESNa 25 mM, penicillin 100 U/mL, streptomycin 100 μg/mL and 10% […] (FBS) at 37 °C in a humidified atmosphere containing 5% CO2. Hep G2 cells were seeded at 1 × 10^6 cells/mL and sub cultured every 2–3 days after 60–80% confluence was reached. To prepare the lysates cells attached to the culture plate were scraped off with a cell scraper and collected in a 1.5 mL tube by centrifugation. The cell pellets were rinsed with PBS, suspended in sterile water, and then lysed by sonication. For each experiment, the cells were treated separately with increasing concentrations of silibinin derivatives (0, 25, 50, 75, 100, 125, 150, 175 and 200 μM) and incubated for 48 h.
(§2) The activities of caspase-3 and 9 were measured using colorimetric substrates. Cells were added to a lysis buffer (100 mM HEPES [pH 7.5], 0.1% CHAPS, 1 mM PMSF, 10 mM MDTT, 1 mM EDTA) and placed on ice for 30 min. After the cells were centrifuged at 10,000 × g for 10 min at 4 °C, 50 μg of protein from the supernatants was added to each of the caspase substrates. The colorimetric substrates for caspase-3 and 9 were Ac-DEVD-pNA (Asp-Glu-Val-Asp-pNA) and Ac-LEHD-pNA (N-acetyl-Leu-Glu-His-Asp-pNA), respectively. After a 2 h incubation, to measure p-nitroanilide absorbance was determined at 405 nm ([34]).

The test system of a further data set is caspase-9. Kind of data set: Caspase-9 activity, colorimetric substrate Ac-LEHD-pNA. It counts as cell-based, human. The following applies: Hep G2, 48 h, control 0.26. How it is done: as §1, §2
A further data set has as its target T1, Acid ceramidase (ACDase) (Homo sapiens, UniProt Q13510).
T1 construct: endogenous in cells; host or cells: Hep G2
T1 sequence (Q13510 22-395): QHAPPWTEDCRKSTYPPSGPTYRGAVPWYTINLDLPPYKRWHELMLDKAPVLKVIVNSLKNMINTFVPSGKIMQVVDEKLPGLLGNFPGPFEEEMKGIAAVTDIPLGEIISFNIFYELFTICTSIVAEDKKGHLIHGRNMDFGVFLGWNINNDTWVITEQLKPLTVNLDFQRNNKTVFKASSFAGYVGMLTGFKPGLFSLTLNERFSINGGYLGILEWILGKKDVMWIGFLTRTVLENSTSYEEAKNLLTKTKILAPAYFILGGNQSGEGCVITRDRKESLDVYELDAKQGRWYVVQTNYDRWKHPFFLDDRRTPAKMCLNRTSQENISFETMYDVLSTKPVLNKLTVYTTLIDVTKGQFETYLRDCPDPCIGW
Kind of data set: ACDase activity assay (fluorogenic). The data set is classed as cell-based. The following applies: Hep G2, 125 µM and higher concentrations. How it is done: as §1
ACDase activity was measured in intact cells and in cell lysates by fluorogenic assays. For intact cell assays, cells (10,000/well) were seeded into 96-well plates in 10% FBS medium. After 24 h, medium was removed and replaced with 5% FBS medium containing indicated concentrations of silibinin derivatives (controls contained ethanol vehicle). Plates were placed in a tissue culture incubator at 37 °C, 5% CO2 for 24 h and cell viability assays were conducted in parallel. Fluorogenic substrate (ethanol vehicle) was then added to a final concentration of 16μM (125 μL final well volume), and the plates were incubated for 3 h at 37 °C, 5% CO2. To complete the assays, 50 μL methanol and 100 μL NaIO4 (2.5 mg/mL) in 0.1 M glycine buffer with a pH of 10.6 were added and the plates were incubated in a dark place for 2 h at 37 °C. Fluorescence was measured in the UV range (365 nm excitation/410–460 nm emission) using a GloMax® multi-detection system (Promega, Madison, WI).
To measure ACDase activity in cell lysates, cells were harvested using trypsin/EDTA, washed three times in ice-cold PBS and re-suspended at a concentration of 1 × 10^6 cells/mL in 0.2 M sucrose. After sonication on ice (microtip, 5–10 s), lysates were centrifuged at 20,000 × g at 4 °C for 15 min to remove debris. Protein in the supernatant was measured using the BCA assay (Pierce Products, Thermo Scientific, Rockford, IL) and bovine serum albumin standard curves. Supernatant protein (60 μg) was added to 96-well plates containing the indicated compounds and sodium acetate–acetic acid buffer, pH 4.5 (25 mM), and incubated for 1 h at 37 °C, in final well volume of 100 μL. Fluorescent substrate was added to a final concentration of 40 μM (125 μL total well volume), and the assay was incubated in the dark at 37 °C for 3 h. Fluorescence was then measured as described above ([23]).

Marks after values point to notes of the source that are not given here.

Procedure for Hep G2 cells: The cell line was grown in RPMI-1640 medium supplemented with L-glutamine 2 mM, HEPESNa 25 mM, penicillin 100 U/mL, streptomycin 100 μg/mL and 10% phosphate-buffered saline (FBS) at 37 °C in a humidified atmosphere containing 5% CO2. Hep G2 cells were seeded at 1 × 10^6 cells/mL and sub cultured every 2–3 days after 60–80% confluence was reached. […] For each experiment, the cells were treated separately with increasing concentrations of silibinin derivatives (0, 25, 50, 75, 100, 125, 150, 175 and 200 μM) and incubated for 48 h.
To measure cell viability, the 3-(4,5-dimethylthiazol-2-yl)-2,5-diphenyl tetrazolium bromide (MTT) colorimetric assay was performed as published ([32], [33]). Briefly, Hep G2 cells were seeded onto 96 flat bottom well plates (50 × 10^3 cells/well) and grown overnight. After the incubation period with silibinin isomers, cells were washed twice with phosphate-buffered saline solution and incubated with MTT solution at a final concentration of 0.5 mg/mL for 3 h and then lysed in dimethyl sulfoxide. Optical density was measured at 540 nm and the background absorbance measured at 660 nm was subtracted. Each experiment was replicated separately for three times.

In the case of `COc1cc([C@@H]2Oc3cc([C@H]4Oc5cc(O)cc(O)c5C(=O)[C@@H]4OC(=O)c4cc(O)c(O)c(O)c4)ccc3O[C@H]2CO)ccc1O` [SGB, 3-O-galloyl silybin B], the “Cell viability (% of control)” value in the data set on Hep G2 cells (25 micro molar) is 91 + 10.0 % of control; in the data set with Hep G2 cells (50 micro molar), 78 + 9.5^* % of control; with Hep G2 cells (75 micro molar) it was 65 + 8.6^* % of control; in the data set on Hep G2 cells (100 micro molar), 56 + 7.7^* % of control; in the data set with Hep G2 cells (125 micro molar), 49 + 6.9^* % of control; in the data set on Hep G2 cells (150 micro molar), 35 + 5.1^* % of control. The “Cell viability (% of control)” value with Hep G2 cells (175 micro molar) is reported as 29 + 4.3^* % of control. Moreover, the “Caspase-3 (ΔOD 405nm)” value is 0.45 ± 0.065 ΔOD 405nm with caspase-3 (25 micro molar); 0.56 ± 0.070 ΔOD 405nm in the data set on caspase-3 (50 micro molar); 0.62 ± 0.081 ΔOD 405nm in the data set with caspase-3 (75 micro molar); 0.78 ± 0.095 ΔOD 405nm in the data set on caspase-3 (100 micro molar); 0.98 ± 0.128 ΔOD 405nm in the data set on caspase-3 (125 micro molar); 1.21 ± 0.160 ΔOD 405nm with caspase-3 (150 micro molar). Also, the “Caspase-3 (ΔOD 405nm)” value with caspase-3 (175 micro molar) was 1.53 ± 0.209 ΔOD 405nm; with caspase-3 (200 micro molar), 1.63 ± 0.221 ΔOD 405nm. Also, the “Caspase-9 (ΔOD 405nm)” value with caspase-9 (25 micro molar) was 0.30 ± 0.048 ΔOD 405nm; in the data set on caspase-9 (50 micro molar) it was 0.41 ± 0.053 ΔOD 405nm; in the data set on caspase-9 (75 micro molar), 0.46 ± 0.046 ΔOD 405nm; with caspase-9 (100 micro molar), 0.53 ± 0.077 ΔOD 405nm; in the data set with caspase-9 (125 micro molar), 0.70 ± 0.093 ΔOD 405nm; in the data set with caspase-9 (150 micro molar) it was 0.89 ± 0.108 ΔOD 405nm. For the same molecule, the “Caspase-9 (ΔOD 405nm)” value is given as 1.18 ± 0.192 ΔOD 405nm in the data set with caspase-9 (175 micro molar) and 1.34 ± 0.207 ΔOD 405nm in the data set on caspase-9 (200 micro molar). The “ACDase activity in cell extract compared to control” value at Acid ceramidase (ACDase) is “markedly inhibited”.

(Values after publication PMC5149029, “New Aspects of Silibinin Stereoisomers and their 3-O-galloyl Derivatives on Cytotoxicity and Ceramide Metabolism in Hep G2 hepatocarcinoma Cell Line” (Iranian Journal of Pharmaceutical Research : IJPR, 2016).)
